Consider one molecule from US10349659B2, “Plant disease control composition and plant disease control method” (SUMITOMO CHEMICAL COMPANY, LIMITED, priority 2015, dated 2019).

For assay [1], the system named is wheat rust fungus (Puccinia recondita). Description: Test Example 4: foliar spray of flowable formulations on wheat, wheat rust lesion area. It is filed as in vivo. The conditions noted are these: foliar spray on wheat one day before inoculation, lesion area after ten days at 23° C. The procedure: Five (5) parts of the present compound 1, 35 parts of a mixture of white carbon and ammonium polyoxyethylene alkyl ether sulfate (the weight ratio of 1:1) and […] of water were mixed, and the mixture was then finely-ground by a wet grinding method to obtain a flowable formulation comprising the present compound 1. Separately, the flowable formulation comprising the present compound 2-1 was prepared according to the above-mentioned similar method except that the present compound 2-1 was used instead of the present compound 1 to form a flowable formulation comprising the present compound 2-1.
Each of the above-mentioned respective flowable formulations, and the flowable formulation comprising the present compound 1 and the present compound 2-1 that was prepared according to the above-mentioned Formulation Example 3 was diluted with water such that each concentration of the respective compounds in the dilution solutions was adjusted to that indicated in Table 6, to prepare the dilution solutions, respectively.
A plastic pot was filled with soil, and thereto wheat (cultivar. Shirogane) was seeded, and the plants were grown in a greenhouse for ten days. […]
From each of the lesion area of the treated group and the untreated group, respectively, the efficacy of the treated group was calculated by the below-mentioned Equation 2. […]

Another assay concerns wheat leaf blight fungus. Briefly: Test Example 3: growth of wheat leaf blight fungus in YBG medium, microtiter plate. It is filed as cell-based, Mycosphaerella graminicola. The conditions noted are these: 18° C., six days, absorbance 550 nm. The procedure:
The present compound 1 or the present compound 2-1 was dissolved into dimethyl sulfoxide such that each concentration of the present compound 1 or the present compound 2-1 was adjusted to one hundred fifty times as much as the concentration indicated in the below-mentioned Table 5. The resultant agent solution was dispensed into a microtiter plate (with 96 wells) in 1 μl portion thereof per well. One hundred forty nine (149) μl of YBG medium (which was prepared by dissolving 10 g of yeast extract, 10 g of Bacto Peptone, and 20 mL of glycerol into 1 L of water, followed by sterilizing the medium) was dispensed into the wells to which the agent solution(s) was/were dispensed. The plate was cultivated at 18° C. for six days, thereby allowing wheat leaf blight fungus to undergo proliferation, and the absorbance at 550 nm of each well of the micro titer plate was then measured to examine a degree of growth of the wheat leaf blight fungus (hereinafter referred to as “treated group”).
Whereas, wheat leaf blight fungus was proliferated similarly to the case of the treated group except that dimethyl sulfoxide was used instead of the agent solution, and the degree of the growth was examined (hereinafter referred to as “untreated group”). The efficacy was calculated from the respective obtained degree of growth by the below-mentioned “Equation 1”. […]

Regarding `CC1CC(C)(C)c2cccc(NC(=O)c3cn(C)nc3C(F)F)c21` (stereo not shown) [Present compound 1], the “Efficacy (%)” value in assay [1] (0.0005 ppm) was found to be 56%; in assay [1] (0.01 ppm), 68%; with wheat leaf blight fungus (concentration in medium 0.005 ppm) it was 15%; with wheat leaf blight fungus (concentration in medium 0.1 ppm), 70%.
